Bounds are passed on as bounds.

The subject of this experiment is HIO80 cells. In words: Cell proliferation assay (alamarBlue), control cell line HIO80. It is filed as cell-based, human. The note with it: 48 h incubation. As for the experimental part:
The cell line COV362 (CVCL_2,420) was originally established from a high-grade ovarian serous adenocarcinoma from a metastatic site in the pleural effusion ([van den Berg-Bakker et al., 1993]) and was purchased from ECACC (ECACC 07071910) as p37 on 13 October 2017. The growth medium for COV362 cells was DMEM (D5546; Sigma–Aldrich GmbH), with 10% FBS (F9665; Sigma–Aldrich GmbH) and 2 mM L-glutamine (G7513; Sigma–Aldrich GmbH). COV362 cells in passages p37 + 12 to p37 + 17 were used in this study and seeded at a concentration of 3.5 cells/ml × 10^4 cells/ml for proliferation studies and at a concentration of 5.3 × 10^5/ml for migration studies. The cell line OVCAR-4 (CVCL_1,627) is a high-grade serous ovarian adenocarcinoma cell line established from a patient refractory to cisplatin ([Johnson et al., 1997]). The cell line was purchased from Merck on 19 March 2021. The growth medium for OVCAR-4 cells was RPMI-1640 (Sigma R5586) supplemented with 2 mM glutamine (G7513; Sigma–Aldrich GmbH), 10% FBS (F9665; Sigma–Aldrich GmbH), 0.25 μg/ml insulin (I9278; Sigma–Aldrich GmbH). OVCAR-4 cells in passages p+6 to p+15 were used in this study and seeded at a concentration of 6 cells/ml × 10^4 cells/ml. The control cell line HIO80 (CVCL_E274) was obtained from Andrew K. Godwin (University of Kansas Medical Center, Kansas, United States) on 20 October 2017 as p+72. It was originally established from ovarian surface epithelium ([Yang et al., 2004]). HIO80 cells were grown in RPMI medium (R5886, Sigma–Aldrich GmbH) supplemented with 10% FBS (F9665; Sigma–Aldrich GmbH), 2 mm L-glutamine (G7513; Sigma–Aldrich GmbH) and 6.6 µg/ml insulin (I9278; Sigma–Aldrich GmbH). HIO80 cells in passages p72 + 8 to p72 + 19 were used in this study and seeded at a concentration of 2 × 10^4 cells/mL. HIO80 in passage +10 was authenticated by short tandem repeats (STR) profiling performed by ATCC on 22 February 2019. Cells were grown in a humidified atmosphere containing 5% CO2 at 37°C. All cell lines were negative for mycoplasma infection which was periodically tested using MycoAlert^TM mycoplasma detection kit (Lonza, Basel, Switzerland).
The effect of ruthenium compounds on the proliferation of ovarian cancer cell lines COV362 and OVCAR-4 and the control cell line HIO80 was analyzed using the cell proliferation reagent alamarBlue HS (A50101; Thermo Fisher Scientific) following the manufacturer’s instructions.
Cells were seeded in 96-well plates in 100 µL of medium and allowed to adhere and grow for 24 h. […] Cisplatin and carboplatin purchased from Sigma–Aldrich GmbH (cat. number: PHR1624, lot: LRAB7778) and (cat. number: C2538, lot: MKCK1243) were dissolved in sterile water. Working solutions were prepared by a serial dilution of stock solutions with a culture medium. After the initial incubation, cells were treated with ruthenium complexes, cisplatin, and carboplatin. A range of final concentrations between 0.001 and 300 µM were used for ruthenium complexes and cisplatin, and between 0.001 µM and 1 mM for carboplatin. After 48 h of incubation, plates were incubated with 20 µL of alamarBlue. After 4 h absorbance was measured with a BioTek microplate spectrophotometer at 570 nm, with the reference wavelength set at 600 nm. First, the background value of a well containing the active substance without cells was subtracted, then the average values for duplicates/triplicates were calculated. The absorbance of the well containing only untreated cells was used as a normalization control. The half-maximal […] concentration (IC50) was determined for all ruthenium complexes with a growth-inhibiting effect on cells by constructing a dose-response curve (Graph Pad Prism, Version 8.0).
(Alamar Blue is a resazurin reagent that responds to reducing activity.)
The IC50 is the concentration at which inhibition is half-maximal. Low values mean greater potency in that assay, high ones weaker potency in that assay. `Cc1ccc(C(C)C)cc1.O=C(C=C([O][Ru][Cl])c1ccc(I)cc1)C(F)(F)F` [Compound 1] displayed an IC50 of 41.9 µM. The same measure for `C1N2CN3CN1CP(C2)C3.Cc1ccc(C(C)C)cc1.F[P-](F)(F)(F)(F)F.O=C(C=C([O][Ru+])c1ccc(I)cc1)C(F)(F)F` [Compound 2]: 92 µM.

`CN(C)c1ccc(C(=CC(=O)C(F)(F)F)[O][Ru][Cl])cc1.Cc1ccc(C(C)C)cc1` [Compound 3, (η^6-p-cymene)chlorido(4,4,4-trifluoro-1-(4-(dimethylamino)phenyl)-1,3-butandionato)ruthenium(II)] returned an IC50 of 34.7 µM. For `Cc1ccc(C(C)C)cc1.O=C(C=C([O][Ru][Cl])c1ccc2c(c1)OCO2)C(F)(F)F` [Compound 5] the value was 60.5 µM.

`C1N2CN3CN1CP(C2)C3.Cc1ccc(C(C)C)cc1.F[P-](F)(F)(F)(F)F.O=C(C=C([O][Ru+])c1ccc2c(c1)OCO2)C(F)(F)F` [Compound 6]: half-maximal inhibition (IC50) was put at 187 µM. The same measure for `Cc1ccc(C(C)C)cc1.[Cl-].[O-]c1c(I)cc(Cl)c2cccnc12.[Ru+2]` [Compound 7]: 14.3 µM. For `C1N2CN3CN1CP(C2)C3.Cc1ccc(C(C)C)cc1.F[P-](F)(F)(F)(F)F.[O-]c1c(I)cc(Cl)c2cccnc12.[Ru+2]` [Compound 8] the value was 32.5 µM; for `Cc1ccc(C(C)C)cc1.O=[N+]([O-])c1ccc([O][Ru][Cl])c2ncccc12` [Compound 9, (η ^6-p-Cymene) (nitroxolinato)chloridoruthenium (II)], 12.8 µM. Consider `C1N2CN3CN1CP(C2)C3.Cc1ccc(C(C)C)cc1.F[P-](F)(F)(F)(F)F.O=[N+]([O-])c1ccc([O][Ru+])c2ncccc12` [Compound 10, (η ^6-p-cymene)(nitroxolinato)(pta)ruthenium(II) hexafluorophosphate], for which the IC50 is above 200 µM.

Source of the values: publication PMC9403717, “Ruthenium complexes show potent inhibition of AKR1C1, AKR1C2, and AKR1C3 enzymes and anti-proliferative action against chemoresistant ovarian cancer cell line” (Frontiers in Pharmacology, 2022).
